Reference: patent US20240139162A1, “Benzophenanthridine Alkaloids and Their Methods of Use” (Chengdu Anticancer Bioscience, LTD., priority 2019, published 2024)

What was measured:
RPE-A19 cells = test: IC50 in RPE-A19 cells (Table 2); assay type: cell-based, human; details: Homo sapiens, 72 h, RPE-A19, treatment 72 h; read-out: IC50
Protocol: (§1) Cells were split, plated in appropriate culture media and allowed to adhere. After 18 hours, corynoline and acetylcorynoline were added to a cell line selected from below. At 72 h or 96 h, MTT was added and at 75 h or 99 h, the A570 nm was recorded. The concentration ranged from 0.02 μM to 40 μM.
(§2) The effect of the compounds chelidonine and protopine on cell division was assessed similarly to corynoline and acetylcorynoline above. As described in Example 6 above, as cells enter and become arrested in mitosis, they detach from the plate surface and appear as rounded cells with a smooth surface membrane. RPE-MBC cells (ectopically expressing oncogenes MYC and Bcl2) were treated with DMSO, chelidonine and protopine, and compared against controls Michael's ketone (MK) and taxol.

[1] = system: RPE cell lines (RPE NEO, RPE MBH, RPE MBC, RPE MA, RPE MP, RPE MI, RPE MYC Nick); test: MTT assay, RPE cell lines expressing oncogenes; assay type: cell-based, human; details: RPE cell lines compared with RPE NEO control (FIG. 11)
aurora-B kinase = test: Phosphorylation of Histone 3 at Ser10 as surrogate of aurora-B kinase activity; assay type: cell-based
Protocol: Cells were cultured on coverslips in a 6-well plate, fixed with 4% paraformaldehyde and then permeabilized with 0.3% Triton X-100 in PBS. Primary antibody was detected with Texas-Red-conjugated secondary antibodies that were purchased from Jackson ImmunoResearch. After immunostaining, cells were mounted on microscope slides with 4′,6′-diamidino-2-phenylindole (DAPI)-containing Vectashield mounting solution (Vector Laboratories) for detection of fluorescence with an EVOS FL fluorescence microscope (ThermoFisher).

RPE-Neo cells = test: IC50 in RPE-Neo cells (Table 2); assay type: cell-based, human; details: Homo sapiens, 72 h, RPE-Neo, treatment 72 h; read-out: IC50
Protocol: as §1
The following RPE cell lines were used in these studies: RPE NEO, RPE MBH, RPE MBC, RPE MA, RPE MP, RPE MI, and RPE MYC Nick. This RPE series were derived from human retinal pigment epithelium and then stably transfected with an hTERT expression construct for immortalization. The resulting cell line was then engineered to overexpress the MYC oncogene (RPE-MYC) or a Neomycin selection marker gene (RPE-NEO). In RPE-MYC cells, a variety of other oncogenes such as Myr-AKT, BCL2, ID1 and PI3K^E45k were further introduced individually to generate the cell lines RPE MA, RPE MBC, RPE MI, RPE MP, respectively. As a control, H2BGFP was introduced into RPE-MYC cells to generate RPE MBH.
as §2

IMR 90 cells = test: IC50 in IMR 90 cells (Table 2); assay type: cell-based; details: Homo sapiens, IMR-90, 72 h, IMR 90, treatment 72 h; read-out: IC50
Protocol: as §1, §2

RPE-MBC cells = test: IC50 in RPE-MBC cells (Table 1); assay type: cell-based, human; details: Homo sapiens; RPE-MBC, treatment 72 h; read-out: IC50
Protocol: Retinal pigment epithelial cells transformed by ectopic MYC and Bcl-2 expression (RPE-MBC cells) have been described previously (e.g., Goga et al., 2007, Nat. Med., 13 (7):820-827) and were cultured in DMEM supplemented with 5% fetal bovine serum in a humidified incubator that was maintained at 5% CO2. For screening for bioactive fractions, cells were cultured in 96-well plates, and exposed to crude extracts, partially purified fractions or pure compounds at the concentrations indicated in the figure legends. Exposure was for 24 or 48 hours before analysis of cells for either an arrest in mitosis using an inverted microscope or for a change in DNA content after 4′,6′-diamidino-2-phenylindole (DAPI) staining by fluorescence microscopy.
The RPE series were derived from human retinal pigment epithelium and then stably transfected with a hTERT expression construct for immortalization. The resulting cell line was then engineered to overexpress the MYC and BCL2 oncogenes, generating the RPE MBC cell line. This cell line mimics cancer cells that overexpress MYC and Bcl2, and readily forms viable polyploid cells when cytokinesis is prevented.
as §1, §2

In the case of `CC(=O)O[C@H]1Cc2cc3c(cc2[C@H]2N(C)Cc4c(ccc5c4OCO5)[C@@]12C)OCO3` [Acetylcorynoline, (5bR,6S,12bR)-5b,6,7,12b,13,14-Hexahydro-5b,13-dimethyl-[1,3]benzodioxolo[5,6-c]-1,3-dioxolo[4,5-i]phenanthridin-6-ol 6-acetate], the IC50 (RPE-A19 cells) is reported as 35.2 µM, the “change of IC50 after overexpression of oncogenic factors” value [1] is reported as “all declined compared with the RPE NEO control, with the exception of the RPE MA cell line” and the “phosphorylation of Histone 3 at Ser10” value (aurora-B kinase) is reported as “not affected”. It also gave an IC50 (RPE-Neo cells) greater than 40 µM, an IC50 (IMR 90 cells) greater than 40 µM and an IC50 (RPE-MBC cells) of 9.94 µM.
